Values joined by “and” are separate entries in the source; they are usually repeats but may differ in a detail not shown here. Equal values may be shown once. “Also recorded” adds a separate entry of the source. Read-outs that look alike come from different tables or passages of the source. Blank lines part the entries; values can stand above or below the compound they belong to.
Columns and labels:
clinical = assay: clinical; design: species or system postmenopausal women; details: human, in vivo
Method: The duration of the study was 3 days, thus 3 dose application were applied. Blood samples were taken at 0 h (basal value), 2, 6, 12, 24, 30, 36, 48, 54, 60, and 72 hs after the initiation of the study. Estradiol and norethindrone serum levels were determined by time-resolved fluoroimmunoassay and by enzyme immunoassay respectively.

[1] = cited from earlier work; for Enhancement factor: normalized skin permeation rate with/without enhancer
[2] = cited from earlier work
[3] = transdermal; Balfour 1990; cited from earlier work
[4] = In vitro permeation through abdominal guinea pig skin (vertical diffusion cell, HPLC); type: in vitro ADME; details: for penetration enhancement at early and late times (in words): early 8 hs, late 16, 24 hs, occlusive
Description: FIG. 3 an apparatus "Hanson P/N 57-VC" (vertical diffusion cell) is schematically represented 3 wherein:
The term "occlusive condition" used for the experimental tests carried out with the apparatus described in FIG. 3, means that the donor chamber (2) of the diffusion is closed by the top plate (3) i.e. not in communication with the external air. On the contrary the term "non occlusive condition" means that the top plate (3) has a hole allowing the free interaction between the formulation to be tested and the external air permitting the evaporation of the volatile solvents.
Furthermore, in vitro permeation experiments through abdominal guinea pig skin was made using the diffusion chamber that is schematically shown in FIG. 3.
Female guinea pigs, 8 to 16 months of age were shaved on their abdominal skin 72 hs. before sacrifice by cervical dislocation. […] A section of full thickness abdominal skin was surgically excised and mounted between the sections of a vertical diffusion cell having 1.77 sqcm of surface area, the epidermal facing up. A given amount of the pharmaceutical formulations exemplified above were spread over the epidermal layer whilst the dermal layer contact with a solution of sodium lauryl sulfate (SDS), at 34° C.
The experiments were conducted in two different conditions: in occlusive condition with a glass stopper, which avoid the evaporating of the volatile solvents, and in non occlusive condition, whereas the stopper used allow the evaporation of the volatile solvents.

[5] = Whitehead 1990; cited from earlier work
[6] = enhancer: Decylmethyl sulfoxide

SMILES: C[C@]12CC[C@@H]3c4ccc(O)cc4CC[C@H]3[C@@H]1CC[C@@H]2O [Estradiol, 17-β-estradiol]
Serum Levels of Estradiol (mean) (clinical): 6,37 pg/ml
concentration at 2 h (clinical; topical or ocular): 0.0328 ng/mL
concentration at 6 h (clinical; topical or ocular): 0.0205 ng/mL
concentration at 12 h (clinical; topical or ocular): 0.0268 ng/mL
concentration at 24 h (clinical; topical or ocular): 0.0276 ng/mL
concentration at 30 h (clinical; topical or ocular): 0.0393 ng/mL
concentration at 36 h (clinical; topical or ocular): 0.0303 ng/mL
concentration at 48 h (clinical; topical or ocular): 0.0359 ng/mL
concentration at 54 h (clinical; topical or ocular): 0.0652 ng/mL
concentration at 60 h (clinical; topical or ocular): 0.0487 ng/mL
concentration at 72 h (clinical; topical or ocular): 0.0437 ng/mL
Enhancement factor ([1]; enhancer: Azone): 20.17
Enhancement factor [1, 6]: 12.59
Enhancement factor ([1]; enhancer: Propyl myristate): 9.33
Enhancement factor ([1]; enhancer: Propyl oleate): 14.62
therapeutically effective daily dose of estrogen ([2]; Powers 1985): 40 to 50 µg/day
serum levels of estradiol required for clinical efficacy ([2]; reviewed by Powers): 40 to 60 pg/mL
effects on gonadotrophins, vaginal epithelium, bone resorption and menopausal symptoms [3]: comparable to those of oral and subcutaneous estrogens
undesirable effects of oral estrogen on hepatic metabolism [3]: avoided

SMILES: C[C@]12CCC(=O)C=C1CC[C@@H]1[C@@H]2[C@@H](O)C[C@@]2(C)[C@H]1CC[C@]2(O)C(=O)CO [Hydrocortisone]
Enhancement factor ([1]; enhancer: Azone): 61.3
Enhancement factor [1, 6]: 25.23
Enhancement factor ([1]; enhancer: Propyl myristate): 4.57
Enhancement factor ([1]; enhancer: Propyl oleate): 5.01

SMILES: COc1ccc2c(c1)c(CC(=O)O)c(C)n2C(=O)c1ccc(Cl)cc1 [Indomethacin]
Enhancement factor ([1]; enhancer: Azone): 14.49
Enhancement factor [1, 6]: 15.67
Enhancement factor ([1]; enhancer: Propyl myristate): 3.77
Enhancement factor ([1]; enhancer: Propyl oleate): 4.67

SMILES: C#C[C@]1(O)CC[C@H]2[C@@H]3CCC4=CC(=O)CC[C@@H]4[C@H]3CC[C@@]21C [Norethindrone, norethindrone]
Serum Levels of Norethindrone (mean) (clinical): 0.093 ng/mL
Serum Levels of Norethindrone (mean) (clinical; topical or ocular, 2 h): 1.407 ng/mL
Serum Levels of Norethindrone (mean) (clinical; topical or ocular, 6 h): 1.394 ng/mL
Serum Levels of Norethindrone (mean) (clinical; topical or ocular, 12 h): 1.908 ng/mL
Serum Levels of Norethindrone (mean) (clinical; topical or ocular, 24 h): 2.695 ng/mL
Serum Levels of Norethindrone (mean) (clinical; topical or ocular, 30 h): 3.461 ng/mL
Serum Levels of Norethindrone (mean) (clinical; topical or ocular, 36 h): 3.096 ng/mL
Serum Levels of Norethindrone (mean) (clinical; topical or ocular, 48 h): 3.713 ng/mL
Serum Levels of Norethindrone (mean) (clinical; topical or ocular, 54 h): 5.61 ng/mL
Serum Levels of Norethindrone (mean) (clinical; topical or ocular, 60 h): 4.904 ng/mL
Serum Levels of Norethindrone (mean) (clinical; topical or ocular, 72 h): 4.899 ng/mL

SMILES: CC(=O)[C@H]1CC[C@H]2[C@@H]3CCC4=CC(=O)CC[C@]4(C)[C@H]3CC[C@]12C [Progesterone]
Enhancement factor ([1]; enhancer: Azone): 5.96
Enhancement factor [1, 6]: 11.04
Enhancement factor ([1]; enhancer: Propyl myristate): 4.56
Enhancement factor ([1]; enhancer: Propyl oleate): 5.36

SMILES: CCCCCC(=O)O [caproic acid]
enhancement of skin permeation of progesterone by fatty acids ([1]; progesterone, saturated fatty acid chain length, Chien): major enhancement effect

SMILES: CCCCCCCCCC(=O)O [decanoic acid]
enhancement for estradiol by fatty acids ([1]; estradiol, U.S. Pat. No. 5,145,682): better enhancer for estradiol

SMILES: CCOCCOCCO [diethylene glycol monoethyl ether]
penetration enhancement at early and late times (in words) [4]: excellent penetration enhancer at late times (16, 24 hs); also recorded: good penetration enhancer for late times; also recorded: enhances the permeation rates of the hormones in the later times

SMILES: CCCCCCCCCCCC(=O)O [lauric acid]
enhancer comparison for naloxone ([1]; naloxone, Brian and Walters): better enhancer than lauryl alcohol

SMILES: CCCCCCCCCCCCO [lauryl alcohol]
norethindrone acetate permeation enhancement (in words) ([4]; comparison of enhancers): two folds higher; also recorded: greater; also recorded: highest enhancement factor for norethindrone acetate; also recorded: most adequate enhancer
penetration enhancement at early and late times (in words) [4]: good penetration enhancer at early time (8 hs); also recorded: good penetration enhancer for early times; also recorded: higher enhancement factor in the early times

norethindrone acetate permeation enhancement (in words) ([4]; comparison of enhancers): greater
SMILES: CCCCCCCCCCO [n-decanol]

SMILES: C#C[C@]1(OC(C)=O)CC[C@H]2[C@@H]3CCC4=CC(=O)CC[C@@H]4[C@H]3CC[C@@]21C [norethindrone acetate]
transdermal dose required to oppose estrogen hyperstimulation of the endometrium / therapeutically effective daily dose of progestin [5]: 200 to 300 µg/day and 200 to 250 µg/day

estradiol permeation enhancement (in words) ([4]; comparison of enhancers): highest enhancement factor for estradiol
SMILES: CCCCCCCC/C=C\CCCCCCCCO [oleyl alcohol]
